Source: ChEMBL document CHEMBL2074455, “The fluorescent probe Bodipy-FL-verapamil is a substrate for both P-glycoprotein and multidrug resistance-related protein (MRP)-1” (J Histochem Cytochem, 2002)

Legend:
[1] = target: ATP-dependent translocase ABCB1 (Mus musculus, UniProt P21447); experiment: TP_TRANSPORTER: efflux, inhibited by Verapamil in P388/ADR cells; assay type: functional, cell-based
[2] = target: Multidrug resistance-associated protein 1 (Homo sapiens, UniProt P33527); experiment: TP_TRANSPORTER: efflux, inhibited by MK571 in PANC-1 cells; assay type: functional, cell-based
Multidrug resistance-associated protein 1, sequence (P33527 whole entry): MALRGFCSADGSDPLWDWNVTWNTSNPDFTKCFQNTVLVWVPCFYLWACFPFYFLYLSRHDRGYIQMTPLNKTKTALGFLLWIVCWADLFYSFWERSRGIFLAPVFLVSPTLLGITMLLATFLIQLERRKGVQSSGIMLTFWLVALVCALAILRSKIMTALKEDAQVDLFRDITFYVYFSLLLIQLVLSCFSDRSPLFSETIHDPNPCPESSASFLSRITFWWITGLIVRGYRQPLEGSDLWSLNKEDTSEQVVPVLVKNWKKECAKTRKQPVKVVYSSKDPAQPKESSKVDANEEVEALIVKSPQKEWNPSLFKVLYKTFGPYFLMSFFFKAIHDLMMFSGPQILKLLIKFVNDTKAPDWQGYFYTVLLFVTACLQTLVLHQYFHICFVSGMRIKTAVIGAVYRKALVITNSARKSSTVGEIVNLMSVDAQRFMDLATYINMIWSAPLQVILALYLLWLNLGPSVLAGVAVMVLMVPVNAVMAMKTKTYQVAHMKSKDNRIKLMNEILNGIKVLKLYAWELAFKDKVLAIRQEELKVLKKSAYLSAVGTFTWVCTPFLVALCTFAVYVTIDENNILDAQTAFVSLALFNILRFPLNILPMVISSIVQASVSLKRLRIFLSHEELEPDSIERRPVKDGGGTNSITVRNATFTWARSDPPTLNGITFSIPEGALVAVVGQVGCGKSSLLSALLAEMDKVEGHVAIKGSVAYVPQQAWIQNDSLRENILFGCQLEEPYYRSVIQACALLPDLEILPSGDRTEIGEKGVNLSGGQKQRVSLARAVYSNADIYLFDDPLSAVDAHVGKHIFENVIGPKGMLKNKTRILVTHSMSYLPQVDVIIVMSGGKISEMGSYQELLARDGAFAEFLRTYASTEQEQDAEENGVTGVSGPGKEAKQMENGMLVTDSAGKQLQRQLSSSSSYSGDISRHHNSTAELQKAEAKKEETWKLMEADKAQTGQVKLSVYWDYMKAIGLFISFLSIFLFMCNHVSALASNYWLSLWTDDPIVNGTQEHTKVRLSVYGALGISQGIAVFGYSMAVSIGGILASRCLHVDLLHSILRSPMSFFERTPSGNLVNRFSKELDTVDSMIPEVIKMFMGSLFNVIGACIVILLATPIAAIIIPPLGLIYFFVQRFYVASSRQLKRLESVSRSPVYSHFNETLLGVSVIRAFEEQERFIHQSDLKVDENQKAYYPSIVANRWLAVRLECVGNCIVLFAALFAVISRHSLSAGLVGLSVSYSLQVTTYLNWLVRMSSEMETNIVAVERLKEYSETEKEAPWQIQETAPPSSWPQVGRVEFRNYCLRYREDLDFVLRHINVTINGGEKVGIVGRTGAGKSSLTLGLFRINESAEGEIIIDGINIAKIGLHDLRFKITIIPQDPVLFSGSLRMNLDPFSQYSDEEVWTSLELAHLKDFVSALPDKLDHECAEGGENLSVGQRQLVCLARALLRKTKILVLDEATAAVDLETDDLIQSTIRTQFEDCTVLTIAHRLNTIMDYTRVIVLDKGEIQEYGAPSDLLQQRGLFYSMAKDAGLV

ATP-dependent translocase ABCB1, sequence (P21447 whole entry): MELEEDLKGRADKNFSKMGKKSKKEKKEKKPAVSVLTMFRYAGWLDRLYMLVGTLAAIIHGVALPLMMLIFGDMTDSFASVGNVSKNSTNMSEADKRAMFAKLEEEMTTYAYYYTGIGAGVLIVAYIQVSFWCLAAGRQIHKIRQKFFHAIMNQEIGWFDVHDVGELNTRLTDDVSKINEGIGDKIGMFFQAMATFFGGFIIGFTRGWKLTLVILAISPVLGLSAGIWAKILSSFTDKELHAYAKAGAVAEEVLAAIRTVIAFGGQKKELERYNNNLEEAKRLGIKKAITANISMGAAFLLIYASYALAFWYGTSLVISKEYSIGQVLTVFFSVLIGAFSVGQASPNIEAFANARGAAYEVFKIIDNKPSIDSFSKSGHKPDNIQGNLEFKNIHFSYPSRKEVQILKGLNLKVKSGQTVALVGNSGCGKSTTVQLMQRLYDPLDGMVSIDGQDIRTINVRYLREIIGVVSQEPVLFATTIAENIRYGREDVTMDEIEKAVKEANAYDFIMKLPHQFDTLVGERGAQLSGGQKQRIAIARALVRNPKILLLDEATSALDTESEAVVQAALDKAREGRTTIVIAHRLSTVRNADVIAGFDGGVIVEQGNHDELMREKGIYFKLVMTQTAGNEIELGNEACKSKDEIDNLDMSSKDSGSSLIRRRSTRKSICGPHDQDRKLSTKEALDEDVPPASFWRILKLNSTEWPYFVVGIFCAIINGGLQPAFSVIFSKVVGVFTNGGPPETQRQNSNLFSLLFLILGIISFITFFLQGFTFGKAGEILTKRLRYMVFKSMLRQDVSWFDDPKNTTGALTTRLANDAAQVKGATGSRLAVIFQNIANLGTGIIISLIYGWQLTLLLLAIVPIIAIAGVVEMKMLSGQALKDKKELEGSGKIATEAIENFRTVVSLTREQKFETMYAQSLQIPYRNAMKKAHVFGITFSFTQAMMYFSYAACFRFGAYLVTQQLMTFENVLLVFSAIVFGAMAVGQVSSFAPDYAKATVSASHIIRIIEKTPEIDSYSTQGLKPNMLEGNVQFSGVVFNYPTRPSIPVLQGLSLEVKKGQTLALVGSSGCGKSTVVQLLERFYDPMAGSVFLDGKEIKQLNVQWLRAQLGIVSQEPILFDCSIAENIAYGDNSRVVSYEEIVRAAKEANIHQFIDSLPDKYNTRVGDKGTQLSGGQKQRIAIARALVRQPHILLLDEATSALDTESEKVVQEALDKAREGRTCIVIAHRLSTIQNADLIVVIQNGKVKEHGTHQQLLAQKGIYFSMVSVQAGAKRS

- Activity [1]: substrate [+]
- Activity [2]: substrate [+]
Structure (SMILES): COc1ccc(CCN(C)CCCC(CNC(=O)NCC2=[N+]3C(=Cc4c(C)cc(C)n4[B-]3(F)F)C=C2)(c2ccc(OC)c(OC)c2)C(C)C)cc1OC (configuration not stated)
